This is an account of results in US20250326790A1, “PEPTIDES BINDING TO HYPOXIA INDUCIBLE FACTORS AND THEIR USE” (UNIVERSITY OF SOUTHAMPTON, priority 2021, published 2025).

*1 amine or outer side, *2 acyl side, *3 side chain or, on linkers, in order; H or OH if unused. Where a SMILES comes first, the peptide text is derived from it. [ ]: non-standard residue; d: D form. Phe(4-I) = N[C@@H](Cc1ccc(I)cc1)C(=O)O; hLeu = CC(C)CC[C@H](N)C(=O)O; CO = O=C([*:1])[*:2]

Sequence of recombinantly expressed PAS-B domain of HIF-1α (Q16665 228-298): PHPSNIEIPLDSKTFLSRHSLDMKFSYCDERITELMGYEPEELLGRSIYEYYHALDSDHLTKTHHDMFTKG

The assay has as its target recombinantly expressed PAS-B domain of HIF-1α (Homo sapiens (Human), UniProt Q16665). The assay can be described thus: MST binding affinity to PAS-B domain of HIF-1α. The note with it: microscale thermophoresis, 50 nM labelled protein, 10% DMSO. How it is done:
MST experiments were performed on a Monolith NT.115 system (Nanotemper Technologies GmbH), in assay buffer containing 50 nM labelled protein, 10% DMSO and 0.05% TWEEN-20. MST measurements were performed using 50% LED and 50% MST power.
For `CNC(=O)N[C@@H](CCC(C)C)C(=O)N[C@@H](Cc1ccc(I)cc1)C(=O)N[C@@H](CS)C(N)=O` [Example 5] ({NHMe-CO}-[hLeu]-[Phe(4-I)]-Cys-NH2), the Kd is above 50 µM. With `Cc1c(S(=O)(=O)N[C@@H](CCC(C)C)C(=O)N[C@@H](Cc2ccc(I)cc2)C(=O)N[C@@H](CS)C(N)=O)sc2ccc(Cl)cc12` [Example 28] the figure was 8 µM; with `CC(C)CC[C@H](NS(=O)(=O)c1ccc(Cl)s1)C(=O)N[C@@H](Cc1ccc(I)cc1)C(=O)N[C@@H](CS)C(=O)NCCCCCN` [Example 40], 100 µM; with `CC(C)CC[C@H](NS(=O)(=O)c1cc(Cl)c(Cl)s1)C(=O)N[C@@H](Cc1ccc(I)cc1)C(=O)N[C@@H](CC(N)=O)C(=O)NCCCCl` [Example 58], above 500 µM. For the compound `CC(C)CC[C@H](NS(=O)(=O)c1cc(Cl)c(Cl)s1)C(=O)N(C)[C@@H](Cc1ccc(I)cc1)C(=O)N[C@@H](CN)C(=O)NCCCCl` [Example 59], the Kd is above 500 µM. As to `CC(C)CC[C@H](NS(=O)(=O)c1cc(Cl)c(Cl)s1)C(=O)N[C@@H](Cc1ccc(I)cc1)C(=O)N[C@@H](CC(F)(F)F)C(=O)NCCCCl` [Example 66], the Kd was above 125 µM. Take `CC(C)CC[C@H](NS(=O)(=O)c1cc(Cl)c(Cl)s1)C(=O)N(C)[C@@H](Cc1ccc(I)cc1)C(=O)N[C@@H](CN1CCOCC1)C(=O)NCCCCl` [Example 67]: the Kd was above 500 µM. For the compound `CC(C)CC[C@H](NS(=O)(=O)c1cc(Cl)c(Cl)s1)C(=O)N[C@@H](Cc1ccc(I)cc1)C(=O)N[C@@H](CS(N)(=O)=O)C(=O)NCCCCl` [Example 68], the Kd was above 500 µM. `CNC[C@H](NC(=O)[C@H](Cc1ccc(I)cc1)NC(=O)[C@H](CCC(C)C)NS(=O)(=O)c1cc(Cl)c(Cl)s1)C(=O)NCCCCl` [Example 72]: the Kd was above 500 µM.
